In patent publication US20210040062A1, “AZOLE-SUBSTITUTED PYRIDINE COMPOUND” (TAISHO PHARMACEUTICAL CO., LTD., priority 2016, published 2021):

Tests used:
[1] = target: T1, human CYP4F2 (Homo sapiens, UniProt P78329); experiment: CYP4F2 inhibition test (Test Example 1); format: biochemical; details: Escherichia coli membrane fraction expressing human CYP4F2, 2.5 μM luciferine derivative, room temperature 60 minutes, luminescence
T1 construct: host or cells: Escherichia coli (membrane fraction)
T1 sequence (P78329 5-520): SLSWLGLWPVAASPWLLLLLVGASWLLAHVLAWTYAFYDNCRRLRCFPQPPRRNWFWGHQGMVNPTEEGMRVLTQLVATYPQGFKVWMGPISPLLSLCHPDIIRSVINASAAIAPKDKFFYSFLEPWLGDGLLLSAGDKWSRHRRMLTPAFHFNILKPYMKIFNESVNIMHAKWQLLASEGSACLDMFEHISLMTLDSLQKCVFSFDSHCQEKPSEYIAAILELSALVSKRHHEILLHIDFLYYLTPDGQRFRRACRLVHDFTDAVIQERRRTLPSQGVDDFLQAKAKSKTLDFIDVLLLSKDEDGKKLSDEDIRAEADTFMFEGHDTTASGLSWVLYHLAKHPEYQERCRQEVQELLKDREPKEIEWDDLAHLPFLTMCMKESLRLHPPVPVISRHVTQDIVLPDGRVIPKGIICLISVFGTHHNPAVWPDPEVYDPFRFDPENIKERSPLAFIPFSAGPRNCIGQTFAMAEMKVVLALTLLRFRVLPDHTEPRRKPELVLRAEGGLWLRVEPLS
Procedure: (§1) (1) Inhibition Test for Each Compound of the Present Invention Against 20-HETE Producing Enzymes (CYP4F2 and CYP4A11)
(§2) In the CYP4F2 inhibition test, the reaction solution containing each compound [final concentration of 50 mM, KPO4 (pH 7.4), 2.5 μM, luciferine derivative and 1 mM NADPH] was added to an Escherichia coli membrane fraction (100 μg/mL, protein) in which human CYP4F2 had been expressed. In the CYP4A11 inhibition test, the reaction solution containing each compound [final concentration of 100 mM, Tris-HCl (pH 7.5), 60 μM, luciferine derivative, 1.3 mM NADP^+, 3.3 mM Glucose 6-Phosphate, 3.3 mM MgCl2 and 0.4 U/mL Glucose 6-Phosphate dehydrogenase] was added to an Escherichia coli membrane fraction (100 μg/mL, protein) in which human CYP4A11 had been expressed. Following this, the membrane fraction was left to stand at room temperature for 60 minutes to perform an enzymatic reaction. After the reaction, a luciferine detection reagent was added, and the luminescence value was measured using a plate reader.
(§3) A: Luminescence value with addition of compound
(§4) B: Luminescence value without addition of compound and enzyme
(§5) C: Luminescence value without addition of compound

[2] = target: T2, human CYP4A11 (Homo sapiens, UniProt Q02928); experiment: CYP4A11 inhibition test (Test Example 1); format: biochemical; details: Escherichia coli membrane fraction expressing human CYP4A11, 60 μM luciferine derivative, room temperature 60 minutes, luminescence
T2 construct: host or cells: Escherichia coli (membrane fraction)
T2 sequence (Q02928 5-519): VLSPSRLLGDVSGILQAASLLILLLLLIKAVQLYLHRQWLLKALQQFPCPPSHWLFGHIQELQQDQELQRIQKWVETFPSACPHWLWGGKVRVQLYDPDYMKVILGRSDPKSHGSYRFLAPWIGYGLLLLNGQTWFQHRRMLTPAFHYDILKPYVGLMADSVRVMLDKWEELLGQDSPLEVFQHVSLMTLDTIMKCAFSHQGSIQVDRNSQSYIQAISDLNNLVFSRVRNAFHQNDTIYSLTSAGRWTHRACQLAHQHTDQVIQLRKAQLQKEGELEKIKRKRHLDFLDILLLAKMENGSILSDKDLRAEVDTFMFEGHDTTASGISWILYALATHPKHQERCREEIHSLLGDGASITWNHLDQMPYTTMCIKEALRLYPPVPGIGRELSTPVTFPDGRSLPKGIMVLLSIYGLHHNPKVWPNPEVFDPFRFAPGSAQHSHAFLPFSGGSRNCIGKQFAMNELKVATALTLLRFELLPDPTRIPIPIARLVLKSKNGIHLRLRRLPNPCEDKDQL
Procedure: as §1, §2, §3, §4, §5

Row | SMILES | IC50 [1] | IC50 [2]
1 | CS(=N)(=O)c1cccc(COc2ccc(-c3ccn[nH]3)nc2)c1 (racemic) [Example 50-1, Imino-methyl-oxo-(3-{[6-(1H-pyrazol-5-yl)pyridin-3-yl]oxymethyl}phenyl)-λ^6-sulfane] | 580 nM | 240 nM
2 | COC(=O)N1CCC(CCOc2ccc(-c3ccn[nH]3)nc2)C(C)C1 (single isomer, unassigned) [Example 1-16-1] | 240 nM | 53 nM
3 | COC(=O)N1CCC(CCOc2ccc(-c3ccn[nH]3)nc2)C(C)C1 (single isomer, unassigned) [Example 1-16-2] | 260 nM | 57 nM
4 | CS(=N)(=O)c1cccc(COc2ccc(-c3ccn[nH]3)nc2)c1 (single isomer, unassigned) [Example 50-2, Imino-methyl-oxo-(3-{[6-(1H-pyrazol-5-yl)pyridin-3-yl]oxymethyl}phenyl)-λ^6-sulfane] | 1200 nM | 250 nM
5 | CS(=N)(=O)c1cccc(COc2ccc(-c3ccn[nH]3)nc2)c1 (single isomer, unassigned) [Example 50-3, Imino-methyl-oxo-(3-{[6-(1H-pyrazol-5-yl)pyridin-3-yl]oxymethyl}phenyl)-λ^6-sulfane] | 380 nM | 340 nM
6 | CC(C)c1cccc(COc2ccc(-c3ccn[nH]3)nc2)c1 [53-3] | 140 nM | 53 nM
7 | CCCCCc1cccc(COc2ccc(-c3ccn[nH]3)nc2)c1 [53-4] | 32 nM | 460 nM
8 | c1cc(COc2ccc(-c3ccn[nH]3)nc2)cc(C2CCCCC2)c1 [53-5] | 130 nM | 660 nM
9 | COc1ccc(COc2ccc(-c3ccn[nH]3)nc2)cc1F [54-3] | 12 nM | 660 nM
10 | Fc1ccc(COc2ccc(-c3ccn[nH]3)nc2)cc1F [54-4] | 24 nM | 350 nM
11 | Fc1cc(COc2ccc(-c3ccn[nH]3)nc2)ccc1Cl [54-5] | 13 nM | 640 nM
12 | Fc1ccc(COc2ccc(-c3ccn[nH]3)nc2)cc1Cl [54-6] | 29 nM | 88 nM
13 | Clc1ccc(COc2ccc(-c3ccn[nH]3)nc2)cc1Cl [54-7] | 19 nM | 170 nM
14 | Fc1ccc(COc2ccc(-c3ccn[nH]3)nc2)cc1C(F)(F)F [54-8] | 21 nM | 1100 nM
15 | Fc1cc(F)cc(COc2ccc(-c3ccn[nH]3)nc2)c1 [54-9] | 130 nM | 670 nM
16 | Clc1cc(Cl)cc(COc2ccc(-c3ccn[nH]3)nc2)c1 [54-10] | 290 nM | 68 nM
17 | COc1cc(COc2ccc(-c3ccn[nH]3)nc2)cc(OC)c1 [54-11] | 320 nM | 690 nM
18 | CCOc1cc(COc2ccc(-c3ccn[nH]3)nc2)cc(OCC)c1 [54-12] | 640 nM | 3600 nM
19 | Fc1cc(COc2ccc(-c3ccn[nH]3)nc2)cc(F)c1F [54-13] | 170 nM | 480 nM
20 | CC(C)c1ccc(COc2ccc(-c3ccn[nH]3)nc2)cc1 [54-14] | 33 nM | 1200 nM
21 | CC(C)(C)c1ccc(COc2ccc(-c3ccn[nH]3)nc2)cc1 [54-15] | 440 nM | 6300 nM
22 | Fc1cccc(COc2ccc(-c3ccn[nH]3)nc2)c1 [54-16] | 22 nM | 520 nM
23 | Fc1ccc(COc2ccc(-c3ccn[nH]3)nc2)cc1 [54-17] | 21 nM | 370 nM
24 | Clc1cccc(COc2ccc(-c3ccn[nH]3)nc2)c1 [54-18] | 23 nM | 130 nM
25 | N#Cc1cccc(COc2ccc(-c3ccn[nH]3)nc2)c1 [54-19] | 15 nM | 390 nM
26 | N#Cc1ccc(COc2ccc(-c3ccn[nH]3)nc2)cc1 [54-20] | 6.5 nM | 1600 nM

Row | SMILES | IC50 [1] | IC50 [2]
27 | Clc1ccc(COc2ccc(-c3ccn[nH]3)nc2)cc1 [54-21] | 9.3 nM | 650 nM
28 | CC(C)C(=O)N1CCC(COc2ccc(-c3ccn[nH]3)nc2)CC1 [Example 1-2] | 180 nM | 530 nM
29 | COC(=O)N1CCC(COc2ccc(-c3ccn[nH]3)nc2)CC1 [Example 1-3] | 73 nM | 310 nM
30 | CC(C)OC(=O)N1CCC(COc2ccc(-c3ccn[nH]3)nc2)CC1 [Example 1-4] | 120 nM | 510 nM
31 | O=C(C1CC1)N1CCC(COc2ccc(-c3ccn[nH]3)nc2)CC1 [Example 1-5] | 110 nM | 530 nM
32 | CC(=O)N1CCC[C@@H](COc2ccc(-c3ccn[nH]3)nc2)C1 [Example 1-6] | 640 nM | 70 nM
33 | CC(C)C(=O)N1CCC[C@@H](COc2ccc(-c3ccn[nH]3)nc2)C1 [Example 1-7] | 150 nM | 87 nM
34 | COC(=O)N1CCC[C@@H](COc2ccc(-c3ccn[nH]3)nc2)C1 [Example 1-8] | 190 nM | 130 nM
35 | CC(C)OC(=O)N1CCC[C@@H](COc2ccc(-c3ccn[nH]3)nc2)C1 [Example 1-9] | 130 nM | 210 nM
36 | CN(C)C(=O)N1CCC[C@@H](COc2ccc(-c3ccn[nH]3)nc2)C1 [Example 1-10] | 22 nM | 130 nM
37 | CC(=O)N1CCC[C@H](COc2ccc(-c3ccn[nH]3)nc2)C1 [Example 1-11] | 180 nM | 220 nM
38 | CC(C)C(=O)N1CCC[C@H](COc2ccc(-c3ccn[nH]3)nc2)C1 [Example 1-12] | 21 nM | 330 nM
39 | COC(=O)N1CCC[C@H](COc2ccc(-c3ccn[nH]3)nc2)C1 [Example 1-13] | 50 nM | 310 nM
40 | CC(C)OC(=O)N1CCC[C@H](COc2ccc(-c3ccn[nH]3)nc2)C1 [Example 1-14] | 39 nM | 330 nM
41 | CN(C)C(=O)N1CCC[C@H](COc2ccc(-c3ccn[nH]3)nc2)C1 [Example 1-15] | 8 nM | 350 nM
42 | CC(C)OC(=O)N1CC(S(=O)(=O)N2CCC[C@@H](COc3ccc(-c4ccn[nH]4)nc3)C2)C1 [Example 1-17] | 6.3 nM | 51 nM
43 | CC(C)OC(=O)N1CC(S(=O)(=O)N2CCC[C@H](COc3ccc(-c4ccn[nH]4)nc3)C2)C1 [Example 1-18] | 3.6 nM | 82 nM
44 | CC(C)CC(=O)N1CC(S(=O)(=O)N2CCC[C@H](COc3ccc(-c4ccn[nH]4)nc3)C2)C1 [Example 1-19] | 3.7 nM | 190 nM
45 | CC(C)CC(=O)N1CC(S(=O)(=O)N2CCC[C@@H](COc3ccc(-c4ccn[nH]4)nc3)C2)C1 [Example 1-20] | 8.6 nM | 77 nM
46 | CC(C)OC(=O)NCCS(=O)(=O)N1CCC[C@H](COc2ccc(-c3ccn[nH]3)nc2)C1 [Example 1-21] | 18 nM | 32 nM
47 | CCOC(=O)NCCS(=O)(=O)N1CCC[C@H](COc2ccc(-c3ccn[nH]3)nc2)C1 [Example 1-22] | 37 nM | 44 nM
48 | CC(C)OC(=O)NCCS(=O)(=O)N1CCC[C@@H](COc2ccc(-c3ccn[nH]3)nc2)C1 [Example 1-23] | 26 nM | 26 nM
49 | CCOC(=O)NCCS(=O)(=O)N1CCC[C@@H](COc2ccc(-c3ccn[nH]3)nc2)C1 [Example 1-24] | 40 nM | 35 nM
50 | CN(C)S(=O)(=O)N1CC(COc2ccc(-c3ccn[nH]3)nc2)C1 [Example 1-25] | 640 nM | 1600 nM
51 | CC(C)S(=O)(=O)N1CC(COc2ccc(-c3ccn[nH]3)nc2)C1 [Example 1-26] | 93 nM | 2300 nM
